PubChem BioAssay (NCI)
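Interpolation was linear, between the two tested concentrations surrounding the appropriate level; five concentrations were tested over 48 hours in 96-well plates. Abbreviation: GI50, concentration required for 50% inhibition of growth. The concentration for full growth arrest is given as TGI.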

Experiments:
Experiment in all cases: inhibition of tumour cell growth, NCI panel, 48 h
786-0 renal = tested on: 786-0 renal
A498 renal = tested on: A498 renal
A549 NSCLC = tested on: A549 NSCLC
ACHN renal = tested on: ACHN renal
BT-549 breast = tested on: BT-549 breast
CAKI-1 renal = tested on: CAKI-1 renal
CCRF-CEM leukemia = tested on: CCRF-CEM leukemia
COLO 205 colon = tested on: COLO 205 colon
DU-145 prostate = tested on: DU-145 prostate
EKVX NSCLC = tested on: EKVX NSCLC
HCC-2998 colon = tested on: HCC-2998 colon
HCT-116 colon = tested on: HCT-116 colon
HCT-15 colon = tested on: HCT-15 colon
HOP-62 NSCLC = tested on: HOP-62 NSCLC
HOP-92 NSCLC = tested on: HOP-92 NSCLC
HS 578T breast = tested on: HS 578T breast
HT29 colon = tested on: HT29 colon
K-562 leukemia = tested on: K-562 leukemia
KM12 colon = tested on: KM12 colon
M14 melanoma = tested on: M14 melanoma
MALME-3M melanoma = tested on: MALME-3M melanoma
MCF7 breast = tested on: MCF7 breast
MDA-MB-231 breast = tested on: MDA-MB-231 breast
MDA-MB-435 = tested on: MDA-MB-435
MOLT-4 leukemia = tested on: MOLT-4 leukemia
NCI-H226 lung = tested on: NCI-H226 lung
NCI-H23 lung = tested on: NCI-H23 lung
NCI-H460 lung = tested on: NCI-H460 lung
NCI-H522 lung = tested on: NCI-H522 lung
NCI/ADR-RES ovarian = tested on: NCI/ADR-RES ovarian
OVCAR-3 ovarian = tested on: OVCAR-3 ovarian
OVCAR-4 ovarian = tested on: OVCAR-4 ovarian
OVCAR-5 ovarian = tested on: OVCAR-5 ovarian
OVCAR-8 ovarian = tested on: OVCAR-8 ovarian
PC-3 prostate = tested on: PC-3 prostate
RPMI-8226 leukemia = tested on: RPMI-8226 leukemia
RXF 393 renal = tested on: RXF 393 renal
SF-268 CNS = tested on: SF-268 CNS
SF-295 CNS = tested on: SF-295 CNS
SF-539 CNS = tested on: SF-539 CNS
SK-MEL-2 melanoma = tested on: SK-MEL-2 melanoma
SK-MEL-28 melanoma = tested on: SK-MEL-28 melanoma
SK-MEL-5 melanoma = tested on: SK-MEL-5 melanoma
SK-OV-3 ovarian = tested on: SK-OV-3 ovarian
SN12C renal = tested on: SN12C renal
SNB-19 CNS = tested on: SNB-19 CNS
SNB-75 CNS = tested on: SNB-75 CNS
SR leukemia = tested on: SR leukemia
SW-620 colon = tested on: SW-620 colon
T-47D breast = tested on: T-47D breast
TK-10 renal = tested on: TK-10 renal
U251 CNS = tested on: U251 CNS
UACC-257 melanoma = tested on: UACC-257 melanoma
UACC-62 melanoma = tested on: UACC-62 melanoma

In the case of `CCCNc1cccc(-n2ncc3c(N/N=C/c4ccncc4)ncnc32)c1`, the GI50 (786-0 renal) is reported as greater than 25 µM, the TGI (786-0 renal) is reported as greater than 25 µM and the GI50 (A498 renal) is reported as 1.12 µM. The TGI (A498 renal) was greater than 25 µM, the GI50 (A549 NSCLC) was greater than 7.61 µM and the TGI (A549 NSCLC) was greater than 25 µM. For the same compound, the GI50 (ACHN renal) was greater than 6.92 µM, the TGI (ACHN renal) was greater than 25 µM and the GI50 (BT-549 breast) was greater than 8.4 µM. It also gave a TGI (BT-549 breast) greater than 25 µM, a GI50 (CAKI-1 renal) of 1.1 µM and a TGI (CAKI-1 renal) greater than 25 µM. For the same compound, the GI50 (CCRF-CEM leukemia) was greater than 25 µM, the TGI (CCRF-CEM leukemia) was greater than 25 µM and the GI50 (COLO 205 colon) was greater than 25 µM. For the same compound, the TGI (COLO 205 colon) was greater than 25 µM, the GI50 (DU-145 prostate) was greater than 25 µM and the TGI (DU-145 prostate) was greater than 25 µM. It also gave a GI50 (EKVX NSCLC) greater than 25 µM, a TGI (EKVX NSCLC) greater than 25 µM and a GI50 (HCC-2998 colon) greater than 25 µM. It also gave a TGI (HCC-2998 colon) greater than 25 µM, a GI50 (HCT-116 colon) of 1.82 µM and a TGI (HCT-116 colon) greater than 25 µM. The GI50 (HCT-15 colon) was 1.68 µM, the TGI (HCT-15 colon) was greater than 25 µM and the GI50 (HOP-62 NSCLC) was 4.72 µM. It also gave a TGI (HOP-62 NSCLC) greater than 25 µM, a GI50 (HOP-92 NSCLC) of 9.32 µM and a TGI (HOP-92 NSCLC) greater than 25 µM. For the same compound, the GI50 (HS 578T breast) was 1.1 µM, the TGI (HS 578T breast) was greater than 25 µM and the GI50 (HT29 colon) was 14.9 µM. For the same compound, the TGI (HT29 colon) was greater than 25 µM, the GI50 (K-562 leukemia) was 1.12 µM and the TGI (K-562 leukemia) was greater than 25 µM. It also gave a GI50 (KM12 colon) of 1.77 µM, a TGI (KM12 colon) greater than 25 µM and a GI50 (M14 melanoma) of 1.69 µM. The TGI (M14 melanoma) was greater than 25 µM, the GI50 (MALME-3M melanoma) was greater than 7.75 µM and the TGI (MALME-3M melanoma) was greater than 25 µM. For the same compound, the GI50 (MCF7 breast) was greater than 5.61 µM, the TGI (MCF7 breast) was greater than 25 µM and the GI50 (MDA-MB-231 breast) was greater than 25 µM. It also gave a TGI (MDA-MB-231 breast) greater than 25 µM, a GI50 (MDA-MB-435) of 0.757 µM and a TGI (MDA-MB-435) greater than 25 µM. The GI50 (MOLT-4 leukemia) was greater than 25 µM, the TGI (MOLT-4 leukemia) was greater than 25 µM and the GI50 (NCI-H226 lung) was greater than 16.5 µM. For the same compound, the TGI (NCI-H226 lung) was greater than 25 µM, the GI50 (NCI-H23 lung) was greater than 25 µM and the TGI (NCI-H23 lung) was greater than 25 µM. It also gave a GI50 (NCI-H460 lung) of 2.65 µM, a TGI (NCI-H460 lung) greater than 25 µM and a GI50 (NCI-H522 lung) of 1.44 µM. It also gave a TGI (NCI-H522 lung) greater than 25 µM, a GI50 (NCI/ADR-RES ovarian) of 1.93 µM and a TGI (NCI/ADR-RES ovarian) greater than 25 µM. It also gave a GI50 (OVCAR-3 ovarian) of 2.17 µM, a TGI (OVCAR-3 ovarian) greater than 25 µM and a GI50 (OVCAR-4 ovarian) greater than 9.88 µM. For the same compound, the TGI (OVCAR-4 ovarian) was greater than 25 µM, the GI50 (OVCAR-5 ovarian) was greater than 25 µM and the TGI (OVCAR-5 ovarian) was greater than 25 µM. The GI50 (OVCAR-8 ovarian) was 11.7 µM, the TGI (OVCAR-8 ovarian) was greater than 25 µM and the GI50 (PC-3 prostate) was greater than 25 µM. For the same compound, the TGI (PC-3 prostate) was greater than 25 µM, the GI50 (RPMI-8226 leukemia) was greater than 25 µM and the TGI (RPMI-8226 leukemia) was greater than 25 µM. For the same compound, the GI50 (RXF 393 renal) was 1.07 µM, the TGI (RXF 393 renal) was greater than 25 µM and the GI50 (SF-268 CNS) was 8.24 µM. The TGI (SF-268 CNS) was greater than 25 µM, the GI50 (SF-295 CNS) was 3.58 µM and the TGI (SF-295 CNS) was greater than 25 µM. For the same compound, the GI50 (SF-539 CNS) was greater than 8.45 µM, the TGI (SF-539 CNS) was greater than 25 µM and the GI50 (SK-MEL-2 melanoma) was 1.49 µM. It also gave a TGI (SK-MEL-2 melanoma) greater than 25 µM, a GI50 (SK-MEL-28 melanoma) greater than 10 µM and a TGI (SK-MEL-28 melanoma) greater than 25 µM. For the same compound, the GI50 (SK-MEL-5 melanoma) was 1.64 µM, the TGI (SK-MEL-5 melanoma) was greater than 25 µM and the GI50 (SK-OV-3 ovarian) was 6.92 µM. The TGI (SK-OV-3 ovarian) was greater than 25 µM, the GI50 (SN12C renal) was greater than 25 µM and the TGI (SN12C renal) was greater than 25 µM. The GI50 (SNB-19 CNS) was greater than 25 µM, the TGI (SNB-19 CNS) was greater than 25 µM and the GI50 (SNB-75 CNS) was 0.934 µM. For the same compound, the TGI (SNB-75 CNS) was greater than 19.4 µM, the GI50 (SR leukemia) was 1.18 µM and the TGI (SR leukemia) was greater than 25 µM. It also gave a GI50 (SW-620 colon) greater than 6.13 µM, a TGI (SW-620 colon) greater than 25 µM and a GI50 (T-47D breast) greater than 25 µM. The TGI (T-47D breast) was greater than 25 µM, the GI50 (TK-10 renal) was 2.37 µM and the TGI (TK-10 renal) was greater than 25 µM. For the same compound, the GI50 (U251 CNS) was 17 µM, the TGI (U251 CNS) was greater than 25 µM and the GI50 (UACC-257 melanoma) was greater than 25 µM. It also gave a TGI (UACC-257 melanoma) greater than 25 µM, a GI50 (UACC-62 melanoma) greater than 7.76 µM and a TGI (UACC-62 melanoma) greater than 25 µM.
